These compounds were tested against mTOR (Homo sapiens, UniProt P42345) (assay: in vitro effect of amino acids on mTOR). Conditions: 1 mM rapamycin compared with 10 mM lysine.
Format: biochemical

Compound	concentration having a comparable inhibitory effect on mTor [mM]
NCCCC[C@H](N)C(=O)O [lysine]	10

Same assay, conditions: in vitro

Compound	effect on mTOR (inhibitory or activating)
N[C@@H](Cc1ccccc1)C(=O)O [Phenylalanine, phenylalanine]	inhibitory effect of mTOR
NCC(=O)O [glycine]	inhibitory effect of mTOR
CC[C@H](C)[C@H](N)C(=O)O [isoleucine]	mTOR activating effect
CC(C)[C@H](N)C(=O)O [valine]	mTOR activating effect
CC(C)C[C@H](N)C(=O)O [leucine]	mTOR activating effect

From US20160184271A1, “Amino Acid Composition for Use in the Treatment of a PDD” (N.V. Nutricia, priority 2013, published 2016)
